Patent US12594276B2, “Inhibitors of human immunodeficiency virus replication” (ViiV Healthcare UK (No.5) Limited, priority 2024, dated 2026)

Legend:
[1] = test system: recombinant NL4-3 virus (nef section replaced with Renilla luciferase gene) in MT-2 cells; experiment: HIV cell culture assay (antiviral activity, luciferase readout); format: cell-based; conditions: Renilla, NL43, MT-2 cells infected for 4-5 days with recombinant NL4-3 Renilla luciferase virus
How it was run: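 The reporter virus was produced by transfecting 293T cells with the NL4-3 nef/Renilla luciferase proviral clone. MT-2 cells were infected for 4–5 days with serial compound dilutions present. Luciferase was read with a live-cell substrate, and EC50 came from the exponential median-effect equation.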

[2] = Compound cytotoxicity, XTT-based colorimetric assay; format: cell-based; conditions: human; uninfected MT2 cells, day 4, XTT; read-out: CC50
How it was run: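 Cells seeded as for the antiviral assay but left uninfected (MT2). Compound exposure continued to day 4. XTT reagent added and colour read. CC50 calculated.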

SMILES | EC50 [1] [pM] | CC50 at 4 days [2] [pM]
CS(=O)(=O)Nc1nn(CCN2CCCC(F)(F)C2)c2c(-n3c([C@H](Cc4cc(F)cc(F)c4)NC(=O)Cn4nc(C(F)F)c5c4C(F)(F)[C@@H]4C[C@H]54)nc4nc(C5CCC(F)(F)CC5)ccc4c3=O)ccc(Cl)c12 (atropisomer, axis not shown; (P)) [Example 168, N-[(1S)-1-[(3P)-3-{4-chloro-1-[2-(3,3-difluoropiperidin-1-yl)ethyl]-3-methanesulfonamido-1H-indazol-7-yl}-7-(4,4-difluorocyclohexyl)-4-oxo-3H,4H-pyrido[2,3-d]pyrimidin-2-yl]-2-(3,5-difluorophenyl)ethyl]-2-[(2S,4R)-9-(difluoromethyl)-5,5-difluoro-7,8-diazatricyclo[4.3.0.0^2,^4]nona-1(6),8-dien-7-yl]acetamide] | 18 | > 50000
CNCc1cc(C2CCC(F)(F)CC2)nc2nc([C@H](Cc3cc(F)cc(F)c3)NC(=O)Cn3nc(C(F)F)c4c3C(F)(F)[C@@H]3C[C@H]43)n(-c3ccc(Cl)c4c(NS(C)(=O)=O)nn(CCCOC)c34)c(=O)c12 (atropisomer, axis not shown; (P)) [Example 472, N-[(1S)-1-[(3P)-3-[4-chloro-3-methanesulfonamido-1-(3-methoxypropyl)-1H-indazol-7-yl]-7-(4,4-difluorocyclohexyl)-5-[(methylamino)methyl]-4-oxo-3H,4H-pyrido[2,3-d]pyrimidin-2-yl]-2-(3,5-difluorophenyl)ethyl]-2-[(2S,4R)-9-(difluoromethyl)-5,5-difluoro-7,8-diazatricyclo[4.3.0.0^2,^4]nona-1(6),8-dien-7-yl]acetamide] | 87 | > 20000
Cc1cc(C2(F)CCC(F)(F)CC2)nc2nc([C@H](Cc3cc(F)cc(F)c3)NC(=O)Cn3nc([C@H]4CC4(F)F)c4c3C[C@H]3C[C@@H]43)n(-c3ccc(Cl)c4c(NS(C)(=O)=O)nn(CCN5C[C@@H](C)O[C@@H](C)C5)c34)c(=O)c12 (atropisomer, axis not shown; (P)) [Example 598, N-[(1S)-1-[(3P)-3-(4-chloro-1-{2-[(2R,6S)-2,6-dimethylmorpholin-4-yl]ethyl}-3-methanesulfonamido-1H-indazol-7-yl)-5-methyl-4-oxo-7-(1,4,4-trifluorocyclohexyl)-3H,4H-pyrido[2,3-d]pyrimidin-2-yl]-2-(3,5-difluorophenyl)ethyl]-2-[(2R,4R)-9-[(1R)-2,2-difluorocyclopropyl]-7,8-diazatricyclo[4.3.0.0^2,^4]nona-1(6),8-dien-7-yl]acetamide] | 9 | > 20000
COC[C@H]1CN(CCn2nc(NS(C)(=O)=O)c3c(Cl)ccc(-n4c([C@H](Cc5cc(F)cc(F)c5)NC(=O)Cn5nc(C(F)F)c6c5C(F)(F)[C@@H]5C[C@H]65)nc5nc(C6CCC(F)(F)CC6)ccc5c4=O)c32)CCO1 (atropisomer, axis not shown; (P)) [Example 356, N-[(1S)-1-[(3P)-3-(4-chloro-3-methanesulfonamido-1-{2-[(2R)-2-(methoxymethyl)morpholin-4-yl]ethyl}-1H-indazol-7-yl)-7-(4,4-difluorocyclohexyl)-4-oxo-3H,4H-pyrido[2,3-d]pyrimidin-2-yl]-2-(3,5-difluorophenyl)ethyl]-2-[(2S,4R)-9-(difluoromethyl)-5,5-difluoro-7,8-diazatricyclo[4.3.0.0^2,^4]nona-1(6),8-dien-7-yl]acetamide] | 29 | > 50000
CCc1cc(C2CCC(F)(F)CC2)nc2nc([C@H](Cc3cc(F)cc(F)c3)NC(=O)Cn3nc(C(F)F)c4c3C(F)(F)[C@@H]3C[C@H]43)n(-c3ccc(Cl)c4c(NS(C)(=O)=O)nn(CCOC)c34)c(=O)c12 (atropisomer, axis not shown; (P)) [Example 632, N-[(1S)-1-[(3P)-3-[4-chloro-3-methanesulfonamido-1-(2-methoxyethyl)-1H-indazol-7-yl]-7-(4,4-difluorocyclohexyl)-5-ethyl-4-oxo-3H,4H-pyrido[2,3-d]pyrimidin-2-yl]-2-(3,5-difluorophenyl)ethyl]-2-[(2S,4R)-9-(difluoromethyl)-5,5-difluoro-7,8-diazatricyclo[4.3.0.0^2,^4]nona-1(6),8-dien-7-yl]acetamide] | 21 | > 50000
COCCCn1nc(NS(C)(=O)=O)c2c(Cl)ccc(-n3c([C@H](Cc4cc(F)cc(F)c4)NC(=O)Cn4nc(C(F)F)c5c4C(F)(F)[C@@H]4C[C@H]54)nc4nc(C5CCC(F)(F)CC5)cc(NCCc5ccccc5)c4c3=O)c21 (atropisomer, axis not shown; (P)) [Example 521, N-[(1S)-1-[(3P)-3-[4-chloro-3-methanesulfonamido-1-(3-methoxypropyl)-1H-indazol-7-yl]-7-(4,4-difluorocyclohexyl)-4-oxo-5-[(2-phenylethyl)amino]-3H,4H-pyrido[2,3-d]pyrimidin-2-yl]-2-(3,5-difluorophenyl)ethyl]-2-[(2S,4R)-9-(difluoromethyl)-5,5-difluoro-7,8-diazatricyclo[4.3.0.0^2,^4]nona-1(6),8-dien-7-yl]acetamide] | 79 | > 20000
COCCCn1nc(NS(C)(=O)=O)c2c(Cl)ccc(-n3c([C@H](Cc4cc(F)cc(F)c4)NC(=O)Cn4nc(C(F)F)c5c4C(F)(F)[C@@H]4C[C@H]54)nc4nc(C5CCC(F)(F)CC5)cc(CN5CC(F)(F)C5)c4c3=O)c21 (atropisomer, axis not shown; (P)) [Example 538, N-[(1S)-1-[(3P)-3-[4-chloro-3-methanesulfonamido-1-(3-methoxypropyl)-1H-indazol-7-yl]-5-[(3,3-difluoroazetidin-1-yl)methyl]-7-(4,4-difluorocyclohexyl)-4-oxo-3H,4H-pyrido[2,3-d]pyrimidin-2-yl]-2-(3,5-difluorophenyl)ethyl]-2-[(2S,4R)-9-(difluoromethyl)-5,5-difluoro-7,8-diazatricyclo[4.3.0.0^2,4]nona-1(6),8-dien-7-yl]acetamide] | 7 | > 20000
Cc1cc(C2(F)CCC(F)(F)CC2)nc2nc([C@H](Cc3cc(F)cc(F)c3)NC(=O)Cn3nc(C4CC4)c4c3C[C@@H]3C[C@H]43)n(-c3ccc(Cl)c4c(NS(C)(=O)=O)nn(CCN5CC(C)(C)OC(C)(C)C5)c34)c(=O)c12 (atropisomer, axis not shown; (P)) [Example 504, N-[(1S)-1-[(3P)-3-{4-chloro-3-methanesulfonamido-1-[2-(2,2,6,6-tetramethylmorpholin-4-yl)ethyl]-1H-indazol-7-yl}-5-methyl-4-oxo-7-(1,4,4-trifluorocyclohexyl)-3H,4H-pyrido[2,3-d]pyrimidin-2-yl]-2-(3,5-difluorophenyl)ethyl]-2-[(2S,4S)-9-cyclopropyl-7,8-diazatricyclo[4.3.0.0^2,^4]nona-1(6),8-dien-7-yl]acetamide] | 49 | > 20000
Cc1cc(C2CCC(F)(F)CC2)nc2nc([C@H](Cc3cc(F)cc(F)c3)NC(=O)Cn3nc(C(F)F)c4c3C(F)(F)[C@@H]3C[C@H]43)n(-c3ccc(Cl)c4c(NS(C)(=O)=O)nn(CCN5C[C@@H](F)C[C@H](F)C5)c34)c(=O)c12 (atropisomer, axis not shown; (P)) [Example 446, N-[(1S)-1-[(3P)-3-(4-chloro-1-{2-[(3S,5S)-3,5-difluoropiperidin-1-yl]ethyl}-3-methanesulfonamido-1H-indazol-7-yl)-7-(4,4-difluorocyclohexyl)-5-methyl-4-oxo-3H,4H-pyrido[2,3-d]pyrimidin-2-yl]-2-(3,5-difluorophenyl)ethyl]-2-[(2S,4R)-9-(difluoromethyl)-5,5-difluoro-7,8-diazatricyclo[4.3.0.0^2,^4]nona-1(6),8-dien-7-yl]acetamide] | 9 | > 20000
CS(=O)(=O)Nc1nn(CCN2CCC(F)(F)C2)c2c(-n3c([C@H](Cc4cc(F)cc(F)c4)NC(=O)Cn4nc(C(F)F)c5c4C(F)(F)[C@@H]4C[C@H]54)nc4nc(C5CCC(F)(F)CC5)cc(C5CC5)c4c3=O)ccc(Cl)c12 (atropisomer, axis not shown; (P)) [Example 354, N-[(1S)-1-[(3P)-3-{4-chloro-1-[2-(3,3-difluoropyrrolidin-1-yl)ethyl]-3-methanesulfonamido-1H-indazol-7-yl}-5-cyclopropyl-7-(4,4-difluorocyclohexyl)-4-oxo-3H,4H-pyrido[2,3-d]pyrimidin-2-yl]-2-(3,5-difluorophenyl)ethyl]-2-[(2S,4R)-9-(difluoromethyl)-5,5-difluoro-7,8-diazatricyclo[4.3.0.0^2,^4]nona-1(6),8-dien-7-yl]acetamide] | 22 | > 50000
Cc1cc(C2CCC(F)(F)CC2)nc2nc([C@H](Cc3cc(F)cc(F)c3)NC(=O)Cn3nc(C(F)F)c4c3C(F)(F)[C@@H]3C[C@H]43)n(-c3ccc(Cl)c4c(NS(C)(=O)=O)nn(C[C@@H](C)N5C[C@H](F)C[C@H](F)C5)c34)c(=O)c12 (atropisomer, axis not shown; (P)) [Example 683, N-[(1S)-1-[(3P)-3-{4-chloro-1-[(2R)-2-[(3R,5S)-3,5-difluoropiperidin-1-yl]propyl]-3-methanesulfonamido-1H-indazol-7-yl}-7-(4,4-difluorocyclohexyl)-5-methyl-4-oxo-3H,4H-pyrido[2,3-d]pyrimidin-2-yl]-2-(3,5-difluorophenyl)ethyl]-2-[(2S,4R)-9-(difluoromethyl)-5,5-difluoro-7,8-diazatricyclo[4.3.0.0^2,^4]nona-1(6),8-dien-7-yl]acetamide] | 6 | > 20000
